# Values quoted from earlier work as cited in patent publication US20070218050A1, “Methods for treatment and prevention of otitis media using chemical penetration enhancers to facilitate transmembrane drug delivery into the middle ear” (Piedmont Pharmaceuticals LLC, priority 2005, published 2007).
# Assays:
# [1] = concentrations at or in excess of 50% v/v, applied to the middle ear; Vassalli et al. 1988
# [2] = round window membrane of the inner ear and cochlea; Marsh and Tom 1989
compound,measurement,setting,value
CC(O)CO (centres unmarked) [propylene glycol],Damage to the middle ear,[1],produces inflammation-related damage to the middle ear
same,Inner ear ototoxicity,[2],implicated in inner ear ototoxicity
